Reference: US20250041433A1, “PROTEIN-ANTIVIRAL COMPOUND CONJUGATES” (REGENERON PHARMACEUTICALS, INC., priority 2021, published 2025)

System: H1N1 A/Puerto Rico/08/1934-GFP influenza virus
Assay: organism not typed
Format: cell-based, H1N1 A/Puerto Rico/08/1934 influenza virus
Conditions: for IC50: MDCK, 20 h, read-out: Antiviral activity of VX-787 free payloads IC50; for antiviral activity of VX-787 derivatives (in words): free payloads

Row | Compound | IC50 [nM] | antiviral activity of VX-787 derivatives (in words)
1 | O=C(O)[C@H]1C2CCC(CC2)[C@@H]1Nc1nc(-c2c(CO)[nH]c3ncc(F)cc23)ncc1F [Compound 15] | 240 | displayed antiviral activity
2 | O=C(NO)[C@H]1C2CCC(CC2)[C@@H]1Nc1nc(-c2c[nH]c3ncc(F)cc23)ncc1F [Compound 20a] | 3.77 | displayed antiviral activity
3 | O=C(NO)[C@H]1C2CCC(CC2)[C@@H]1Nc1nc(-c2c[nH]c3ncc(F)cc23)nc2sccc12 [Compound 20b] | 9.64 | displayed antiviral activity
4 | Cn1ccc2c(N[C@H]3C4CCC(CC4)[C@@H]3C(=O)NO)nc(-c3c[nH]c4ncc(F)cc34)nc21 [Compound 20c] | 13.8 | displayed antiviral activity
5 | O=C(NO)[C@H]1C2CCC(CC2)[C@@H]1Nc1nc(-c2n[nH]c3ncc(F)cc23)ncc1F [Compound 57] | 2 | 
6 | O=C(NO)[C@H]1C2CCC(CC2)[C@@H]1Nc1nc(-c2n[nH]c3ncc(F)cc23)nc2sccc12 [Compound 62] | 2.19 | 
